Results reported in US20250115600A1, “COVALENT MODIFIERS OF AKT1 AND USES THEREOF” (Terremoto Biosciences, Inc., priority 2022, published 2025).

Columns and labels:
Assay in all cases: Live cell target engagement (NanoBRET) in HEK293 cells
Format in all cases: cell-based
AKT2 = AKT2 (Homo sapiens (Human), UniProt P31751); conditions: HEK293, 2 hours at 37° C.
AKT1 E17K = AKT1 E17K (Homo sapiens (Human), UniProt P31749, E17K); conditions: for IC50: HEK293, 2 hours at 37° C.
AKT1 WT = AKT1 WT (Homo sapiens (Human), UniProt P31749); conditions: HEK293, 2 hours at 37° C.
AKT1 WT, sequence (P31749 whole entry): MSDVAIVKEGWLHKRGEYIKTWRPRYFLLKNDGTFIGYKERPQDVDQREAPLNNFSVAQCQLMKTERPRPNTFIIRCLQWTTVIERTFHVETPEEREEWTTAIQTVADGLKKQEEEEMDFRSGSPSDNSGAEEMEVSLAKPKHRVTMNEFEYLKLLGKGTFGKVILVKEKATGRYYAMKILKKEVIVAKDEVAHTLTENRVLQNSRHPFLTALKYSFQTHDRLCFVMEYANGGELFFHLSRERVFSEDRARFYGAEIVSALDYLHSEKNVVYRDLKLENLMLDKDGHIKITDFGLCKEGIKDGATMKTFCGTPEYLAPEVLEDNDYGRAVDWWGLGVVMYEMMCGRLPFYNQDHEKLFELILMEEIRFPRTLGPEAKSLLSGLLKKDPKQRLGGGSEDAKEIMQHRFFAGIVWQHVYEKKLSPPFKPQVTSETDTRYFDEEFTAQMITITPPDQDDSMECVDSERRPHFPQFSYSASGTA

AKT1 E17K, sequence (P31749 whole entry E17K): as the sequence (P31749 whole entry) above, with E17K counted along it
AKT2, sequence (P31751 whole entry): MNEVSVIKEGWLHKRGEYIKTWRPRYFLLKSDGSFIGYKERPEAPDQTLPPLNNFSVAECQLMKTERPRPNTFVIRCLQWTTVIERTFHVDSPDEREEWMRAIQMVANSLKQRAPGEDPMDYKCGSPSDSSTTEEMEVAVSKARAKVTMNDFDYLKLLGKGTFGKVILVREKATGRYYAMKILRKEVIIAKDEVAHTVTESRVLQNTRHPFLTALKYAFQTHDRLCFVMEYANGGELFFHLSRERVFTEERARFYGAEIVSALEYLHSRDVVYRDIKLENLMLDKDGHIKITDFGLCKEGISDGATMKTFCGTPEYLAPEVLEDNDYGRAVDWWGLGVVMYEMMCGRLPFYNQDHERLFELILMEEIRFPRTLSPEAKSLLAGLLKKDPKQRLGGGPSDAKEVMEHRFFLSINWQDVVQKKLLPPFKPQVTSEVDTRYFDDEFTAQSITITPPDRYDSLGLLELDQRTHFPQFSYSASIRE

IC50 (AKT2) [µM]	AKT1 E17K IC50: Selectivity vs AKT1 WT (AKT1 E17K)	AKT1 E17K IC50: Selectivity vs AKT2 (AKT1 E17K)	IC50 (AKT1 E17K) [µM]	IC50 (AKT1 WT) [µM]	SMILES
> 0.5	7.7	65	< 0.1	0.1 to 0.5	Nc1ncccc1-c1nc2ccc(-c3cccnc3)nc2n1-c1ccc(CNC(=O)C2(c3ccc(C=O)c(O)c3)CC2)cc1 [Compound 70, N-({4-[2-(2-aminopyridin-3-yl)-5-(pyridin-3-yl)imidazo[4,5-b]pyridin-3-yl]phenyl}methyl)-1-(4-formyl-3-hydroxyphenyl)cyclopropane-1-carboxamide]
> 0.5	3.9	160	< 0.1	< 0.1	Nc1ncccc1-c1nc2ccc(OC3CC3)nc2n1-c1ccc(CNC(=O)Cc2ccc(C=O)c(O)c2)cc1 [Example 10, N-({4-[2-(2-aminopyridin-3-yl)-5-cyclopropoxyimidazo[4,5-b]pyridin-3-yl]phenyl}methyl)-2-(4-formyl-3-hydroxyphenyl)acetamide]
0.1 to 0.5	1.8	64	< 0.1	< 0.1	Nc1ncccc1-c1nc2ccc(-c3ccccc3F)nc2n1-c1ccc(CNC(=O)Cc2ccc(C=O)c(O)c2)cc1 [Compound 54, N-({4-[2-(2-aminopyridin-3-yl)-5-(2-fluorophenyl)imidazo[4,5-b]pyridin-3-yl]phenyl}methyl)-2-(4-formyl-3-hydroxyphenyl)acetamide]
> 0.5	2	38	< 0.1	< 0.1	Nc1ncccc1-c1nc2ccc(-c3ccccc3)nc2n1-c1ccc(CNC(=O)c2cc(C=O)c(O)cc2F)cc1 [Example 4, N-({4-[2-(2-aminopyridin-3-yl)-5-phenylimidazo[4,5-b]pyridin-3-yl]phenyl}methyl)-2-fluoro-5-formyl-4-hydroxybenzamide]
> 0.5	1.9	6.2	< 0.1	0.1 to 0.5	Nc1ncccc1-c1nc2ccc(-c3ccccc3)nc2n1-c1ccc(C(CO)NC(=O)Cc2ccc(C=O)c(O)c2F)cc1 (centres unmarked) [Compound 30, N-(1-(4-(2-(2-aminopyridin-3-yl)-5-phenyl-3H-imidazo[4,5-b]pyridin-3-yl)phenyl)-2-hydroxyethyl)-2-(2-fluoro-4-formyl-3-hydroxyphenyl)acetamide]
> 0.5	10	40	< 0.1	0.1 to 0.5	Nc1ncccc1-c1nc2ccc(-c3ccnc(N4CCOCC4)c3)nc2n1-c1ccc(CNC(=O)Cc2ccc(C=O)c(O)c2)cc1 [Compound 34, N-({4-[2-(2-aminopyridin-3-yl)-5-[2-(morpholin-4-yl)pyridin-4-yl]imidazo[4,5-b]pyridin-3-yl]phenyl}methyl)-2-(4-formyl-3-hydroxyphenyl)acetamide]
< 0.1	0.16	0.72	< 0.1	< 0.1	Nc1ncccc1-c1nc2ccc(-c3ccccc3)nc2n1-c1ccc(CNCCc2ccc(O)c(C=O)c2)cc1 [Compound 135, 5-(2-((4-(2-(2-aminopyridin-3-yl)-5-phenyl-3H-imidazo[4,5-b]pyridin-3-yl)benzyl)amino)ethyl)-2-hydroxybenzaldehyde]
0.1 to 0.5	3.3	36	< 0.1	< 0.1	Cc1c(CC(=O)NCc2ccc(-n3c(-c4cccnc4N)nc4ccc(-c5ccccc5)nc43)cc2)ccc(C=O)c1O [Example 14, N-({4-[2-(2-aminopyridin-3-yl)-5-phenylimidazo[4,5-b]pyridin-3-yl]phenyl}methyl)-2-(4-formyl-3-hydroxy-2-methylphenyl)acetamide]
> 0.5	3.8	110	< 0.1	0.1 to 0.5	Nc1ncccc1-c1nc2ccc(C3CC3)nc2n1-c1ccc(CNC(=O)c2ccc(O)c(C=O)c2)cc1 [Compound 27, N-({4-[2-(2-aminopyridin-3-yl)-5-cyclopropylimidazo[4,5-b]pyridin-3-yl]phenyl}methyl)-3-formyl-4-hydroxybenzamide]
< 0.1	0.51	2.5	< 0.1	< 0.1	Nc1ncccc1-c1nc2ccc(-c3ccccc3)nc2n1-c1ccc(CNCCCc2ccc(O)c(C=O)c2)cc1 [Compound 129, 5-(3-((4-(2-(2-aminopyridin-3-yl)-5-phenyl-3H-imidazo[4,5-b]pyridin-3-yl)benzyl)amino)propyl)-2-hydroxybenzaldehyde]
> 0.5	2.9	18	< 0.1	0.1 to 0.5	Nc1ncccc1-c1nc2ccc(-c3ccncc3)nc2n1-c1ccc(CNCCc2ccc(C=O)c(O)c2)cc1 [Compound 119, 4-{2-[({4-[2-(2-aminopyridin-3-yl)-5-(pyridin-4-yl)imidazo[4,5-b]pyridin-3-yl]phenyl}methyl)amino]ethyl}-2-hydroxybenzaldehyde]
0.1 to 0.5	1.6	29	< 0.1	< 0.1	Nc1ncccc1-c1nc2ccc(-c3ccccc3)nc2n1-c1ccc(NC(=O)CCc2ccc(C=O)c(O)c2)cc1 [Compound 118, N-(4-(2-(2-aminopyridin-3-yl)-5-phenyl-3H-imidazo[4,5-b]pyridin-3-yl)phenyl)-3-(4-formyl-3-hydroxyphenyl)propanamide]
> 0.5	4.8	270	< 0.1	< 0.1	CC(C)c1ccc2nc(-c3cccnc3N)n(-c3ccc(CNC(=O)Cc4ccc(C=O)c(O)c4)cc3)c2n1 [Example 23, N-({4-[2-(2-aminopyridin-3-yl)-5-isopropylimidazo[4,5-b]pyridin-3-yl]phenyl}methyl)-2-(4-formyl-3-hydroxyphenyl)acetamide]
> 0.5	4.3	210	< 0.1	< 0.1	Cc1ccc2nc(-c3cccnc3N)n(-c3ccc(CNC(=O)Cc4ccc(C=O)c(O)c4)cc3)c2n1 [Compound 24, N-({4-[2-(2-aminopyridin-3-yl)-5-methylimidazo[4,5-b]pyridin-3-yl]phenyl}methyl)-2-(4-formyl-3-hydroxyphenyl)acetamide]
> 0.5	1	1	> 0.5	> 0.5	Nc1ncccc1-c1nc2ccc(-c3ccccc3)nc2n1-c1ccc(C(=O)NCCc2ccc(C=O)c(O)c2)cn1 [Compound 112, 6-[2-(2-aminopyridin-3-yl)-5-phenylimidazo[4,5-b]pyridin-3-yl]-N-[2-(4-formyl-3-hydroxyphenyl)ethyl]pyridine-3-carboxamide]
0.1 to 0.5	1.3	17	< 0.1	< 0.1	Nc1ncccc1-c1nc2ccc(-c3ccccc3)nc2n1-c1ccc(NC(=O)Cc2ccc(O)c(C=O)c2)cc1 [Compound 28, N-{4-[2-(2-aminopyridin-3-yl)-5-phenylimidazo[4,5-b]pyridin-3-yl]phenyl}-2-(3-formyl-4-hydroxyphenyl)acetamide]
0.1 to 0.5	1.6	13	< 0.1	< 0.1	Nc1ncccc1-c1nc2ccc(-c3ccccc3)nc2n1-c1ccc(C(=O)NCCc2ccc(C=O)c(O)c2)cc1 [Compound 131, 4-(2-(2-aminopyridin-3-yl)-5-phenyl-3H-imidazo[4,5-b]pyridin-3-yl)-N-(4-formyl-3-hydroxyphenethyl)benzamide]
0.1 to 0.5	0.83	6.3	< 0.1	< 0.1	Nc1ncccc1-c1nc2ccc(-c3ccccc3)nc2n1-c1ccc(CCNC(=O)c2ccc(C=O)c(O)c2)cc1 [Compound 111, N-(2-{4-[2-(2-aminopyridin-3-yl)-5-phenylimidazo[4,5-b]pyridin-3-yl]phenyl}ethyl)-4-formyl-3-hydroxybenzamide]
> 0.5	9	110	< 0.1	0.1 to 0.5	Cn1cc(-c2ccc3nc(-c4cccnc4N)n(-c4ccc(CNC(=O)Cc5ccc(C=O)c(O)c5)cc4)c3n2)cn1 [Compound 32, N-({4-[2-(2-aminopyridin-3-yl)-5-(1-methylpyrazol-4-yl)imidazo[4,5-b]pyridin-3-yl]phenyl}methyl)-2-(4-formyl-3-hydroxyphenyl)acetamide]
> 0.5	3.1	190	< 0.1	< 0.1	Nc1ncccc1-c1nc2ccc(C3CC3)nc2n1-c1ccc(CNC(=O)Cc2ccc(C=O)c(O)c2Cl)cc1 [Example 22, N-({4-[2-(2-aminopyridin-3-yl)-5-cyclopropylimidazo[4,5-b]pyridin-3-yl]phenyl}methyl)-2-(2-chloro-4-formyl-3-hydroxyphenyl)acetamide]
> 0.5	1.8	3.7	> 0.5	> 0.5	Nc1ncccc1-c1nc2cccnc2n1-c1ccc(CNC(=O)c2ccc(O)c(C=O)n2)cc1 [Compound 47, N-(4-(2-(2-aminopyridin-3-yl)-3H-imidazo[4,5-b]pyridin-3-yl)benzyl)-6-formyl-5-hydroxypicolinamide]

SMILES	IC50 (AKT2) [µM]	AKT1 E17K IC50: Selectivity vs AKT1 WT (AKT1 E17K)	AKT1 E17K IC50: Selectivity vs AKT2 (AKT1 E17K)	IC50 (AKT1 E17K) [µM]	IC50 (AKT1 WT) [µM]
CC(C(=O)NCc1ccc(-n2c(-c3cccnc3N)nc3ccc(-c4ccccc4)nc32)cc1)c1ccc(C=O)c(O)c1 (centres unmarked) [Compound 37]	> 0.5	11	180	< 0.1	< 0.1
